Values quoted from earlier work in US20090214599A1, “PROTON PUMP INHIBITOR FORMULATIONS, AND METHODS OF PREPARING AND USING SUCH FORMULATIONS” (AGI THERAPEUTICS PLC, priority 2008, published 2009).

Tests used:
[1] = healthy subjects
[2] = pH <4

total body clearance [1]: 500 to 600 mL/min
half-life of degradation in acid conditions [2]: ~10 min
Protein binding: approximately 95%
SMILES: COc1ccc2[nH]c([S+]([O-])Cc3ncc(C)c(OC)c3C)nc2c1 (stereo not drawn) [omeprazole]
